Data published in ChEMBL document CHEMBL1149442, “Dual binding mode of a novel series of DHODH inhibitors” (J Med Chem, 2006).

Target: Dihydroorotate dehydrogenase (quinone), mitochondrial (Homo sapiens, UniProt Q02127)
Assay: Inhibitory activity against human DHODH

Chain of Dihydroorotate dehydrogenase (quinone), mitochondrial (Q02127 whole entry): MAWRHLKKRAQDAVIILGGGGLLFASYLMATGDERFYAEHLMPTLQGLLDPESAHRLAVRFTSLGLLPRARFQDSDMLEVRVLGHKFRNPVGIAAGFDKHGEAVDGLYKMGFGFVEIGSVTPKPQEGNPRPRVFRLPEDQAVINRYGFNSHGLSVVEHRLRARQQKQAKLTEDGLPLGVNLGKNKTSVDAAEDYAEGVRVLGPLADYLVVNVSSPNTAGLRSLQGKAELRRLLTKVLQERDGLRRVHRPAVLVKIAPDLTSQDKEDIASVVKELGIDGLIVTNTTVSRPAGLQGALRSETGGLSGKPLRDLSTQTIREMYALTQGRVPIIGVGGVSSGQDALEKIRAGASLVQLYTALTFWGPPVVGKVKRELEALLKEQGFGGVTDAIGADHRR

IC50: 2 nM
Structure (SMILES): O=C(Nc1c(F)cc(-c2cccc(OC(F)(F)F)c2)cc1F)c1ccsc1C(=O)O
